From PubChem BioAssay (NCI)
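48-hour exposure; five concentrations; linearly interpolated endpoints. GI50 = concentration required for 50% inhibition of growth. TGI: concentration producing complete growth inhibition.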

Legend:
Assay in all cases: NCI anticancer screen, dose series, 48 h
CAKI-1 renal = system: CAKI-1 renal
HCT-15 colon = system: HCT-15 colon
HOP-92 NSCLC = system: HOP-92 NSCLC
K-562 leukemia = system: K-562 leukemia
KM12 colon = system: KM12 colon
NCI-H226 lung = system: NCI-H226 lung
RXF 393 renal = system: RXF 393 renal
SW-620 colon = system: SW-620 colon
U251 CNS = system: U251 CNS
UACC-257 melanoma = system: UACC-257 melanoma

Structure (SMILES)	GI50 (CAKI-1 renal) [µM]	TGI (CAKI-1 renal) [µM]	GI50 (HCT-15 colon) [µM]	TGI (HCT-15 colon) [µM]	GI50 (HOP-92 NSCLC) [µM]	TGI (HOP-92 NSCLC) [µM]	GI50 (K-562 leukemia) [µM]	TGI (K-562 leukemia) [µM]	GI50 (KM12 colon) [µM]	TGI (KM12 colon) [µM]	GI50 (NCI-H226 lung) [µM]	TGI (NCI-H226 lung) [µM]	GI50 (RXF 393 renal) [µM]	TGI (RXF 393 renal) [µM]	GI50 (SW-620 colon) [µM]	TGI (SW-620 colon) [µM]	GI50 (U251 CNS) [µM]	TGI (U251 CNS) [µM]	GI50 (UACC-257 melanoma) [µM]	TGI (UACC-257 melanoma) [µM]
O=C(O)c1cc(O)c2c(c1)C(C1c3cc(C(=O)O)cc(O)c3C(=O)c3c(OC4OC(CO)C(O)C(O)C4O)cccc31)c1cccc(OC3OC(CO)C(O)C(O)C3O)c1C2=O (stereo not given)	> 100	> 100	> 100	> 100	> 100	> 100	> 100	> 100	> 100	> 100	> 100	> 100	> 100	> 100	> 100	> 100	> 100	> 100	> 100	> 100
CC(C)c1ccccc1S(=O)c1ccccc1C(C)(C)O (stereo not given)	–	> 100	–	> 100	–	> 100	–	> 100	–	> 100	–	41.8	–	> 100	–	> 100	–	39.1	–	> 100
O=C(Nc1ccc([N+](=O)[O-])cc1)C1C(=O)C(=O)N(c2ccc([N+](=O)[O-])cc2)C1=O (stereo not given)	–	> 100	–	> 100	–	> 100	–	> 100	–	> 100	–	> 100	–	> 100	–	33.9	–	> 100	–	> 100
CCN(CC)CCOc1ccc(/C(=C(\C)c2ccc(F)c(OC)c2)c2ccc(Cl)cc2)cc1	2.42	4.61	1.08	3.39	1.3	3.68	0.855	6	2.27	4.73	2.53	5.14	2.18	4.36	2.12	4.28	2.23	4.74	2.18	4.67
CCOC(=O)C1N(S(=O)(=O)c2ccc(C)cc2)CCC12C(c1ccc(OC)cc1)NC1CCCCC12 (stereo not given)	–	> 100	–	> 100	–	80.9	–	> 100	–	> 100	–	> 100	–	> 100	–	> 100	–	> 100	–	> 100
CCOC(=O)N1CCN(C(=O)c2ccc(C(F)(F)F)nc2Nc2cc(Cl)ccc2C)CC1	21.1	64.5	23.1	> 100	10.2	> 100	6.31	> 100	11.2	31.2	20.5	68.6	14	65.2	15.4	92.9	27.1	> 100	27.2	> 100
NC1CCCC[C@H]1N.N[C@@H]1CCCC[C@@H]1N.O=C(P(=O)([O-])[O-])P(=O)([O-])[O-].[Pt+4].[Pt+4]	> 100	> 100	63.8	> 100	> 100	> 100	78.2	> 100	> 100	> 100	> 100	> 100	> 100	> 100	38.8	> 100	> 100	> 100	> 100	> 100
